Test results from patent publication US20150166505A1, “PYRIDINYL-SUBSTITUTED PYRAZOLYL CARBOXAMIDES” (GRÜNENTHAL GMBH, priority 2013, published 2015).
Counter-ions that a name gives are not always drawn. Like-named read-outs stand apart in the source and are kept apart here.

Assays:
[1] = target: T1, CRAC channel (endogenous SOC in HEK293 cells) (Homo sapiens, UniProt Q96D31); test: HEK Calcium Influx Assay (FLIPR); format: cell-based
T1 construct: endogenous in cells; host or cells: HEK293 (ECACC)
Experimental: The effect of compounds of the invention on intracellular [Ca^2+] was tested in the HEK293 cell line (ECACC). HEK293 cells were cultured in DMEM/F12/Glutamax (Gibco) containing 10% FCS (Gibco), and maintained at 37° C., 5% CO2. Cell were split twice a week [3*10^6 (Mon-Thu) and 1*10^6 (Thu-Mon) cells/50 ml medium in T-175 ZK culture flasks, respectively]. Twenty four hours pre-experiment, cells were seeded on 96 well plates (Poly-D-Lysine 96well Black/Clear Plate, BD Biocoat REF 356640) at a density of 40,000 cells/well in DMEM/F12 (Gibco) containing 10% FCS (Gibco), and maintained at 37° C., 5% CO2. Prior to store-depletion, cell culture medium was removed and cells were loaded with the a Calcium-sensitive fluorescent dye comprised within the Calcium-4-assay kit (Molecular Devices) in nominally Ca^2+-free HBS buffer (140 mM NaCl, 4 mM KCl, 0.2 mM MgCl2, 11 mM D-glucose, and 10 mM HEPES, pH 7.4) according to manufacturer's instruction for 60 min at 37° C., 5% CO2. Passive depletion of intracellular Ca^2+-stores was then triggered by employing the SERCA inhibitor thapsigargin (2 μM final) for 10 min in the dark (RT). To prevent immediate Ca^2+-entry via the activated Store-operated channels (SOCs), cells were maintained in Ca^2+-free HBS buffer comprising 100 μM EGTA during store-depletion. Intracellular changes in [Ca^2+] were subsequently monitored with the FLIPR device (Molecular Devices). In brief, baseline imaging post-store depletion was allowed for 1 min before adjusting the extracellular buffer to 3 mM CaCl2. Increases in intracellular [Ca^2+] due to pre-activated SOC channels were monitored for 15 min until intracellular Ca^2+ levels had declined into a steady-state. Finally, compounds were administered and Ca^2+ signals were recorded for additional 10 min. Inhibition of endogenous SOC in HEK293 cells was quantified employing the average Ca^2+ signal measured from 9.5-10 min post-administration. Zero percent inhibition (MAX) was defined as the Ca^2+ signal recorded from wells to which DMSO-only had been added instead of compound. Hundred percent inhibition (MIN) was defined as the signal obtained from wells in which cells haven't been treated with TG prior to Ca^2+ addition and to which DMSO-only had been added instead of compound. For routine IC50 determinations of compounds, 8 concentrations of a serial dilution (1:3.16) were tested, starting off from 10 μM. Reliable IC50's could consequently be determined only, if they were at least sub 2.5-3 μM.

[2] = system: Interleukin-2 (IL-2) production/release in Jurkat T cell line; test: Jurkat IL-2 Production Assay; format: cell-based; conditions: Homo sapiens; Jurkat T cells, PHA stimulation 22 hours
Experimental: Jurkat IL-2 Production Assay
The effect of compounds of the invention on Interleukin-2 (IL-2) production/release was tested in the Jurkat T cell line (ECACC) clone E6-1. Jurkat T cells were cultured in DMEM/F12/Glutamax (Gibco) containing 10% FCS (Gibco), and maintained at 37° C., 5% CO2. Cell were split twice a week [5*10^6 (Mon-Thu) and 1*10^7 (Thu-Mon) cells/50 ml medium in T-175 ZK culture flasks, respectively]. Prior to experiment, cells were seeded on 96 well plates (Cellstar 96 Well; Cat No. 655180, Greiner bio-one) at a density of 5*10^5 cells/well in DMEM/F12/Glutamax (Gibco) containing 10% FCS (Gibco), and incubated for 60 min at 37° C., 5% CO2. Subsequently, compounds were added and cells were allowed to incubate for 30 min at 37° C., 5% CO2. Cells were then stimulated with 15 μg/ml Phytohemagglutinin (PHA; Sigma) for 22 hours at 37° C., 5% CO2. Before sampling of the supernatants, cells were spun down (200*g/5 min/RT). The amount of IL-2 released into the supernatant was quantified with the human IL-2 AlphaLisa kit (Perkin Elmer) according to manufacturer's instructions. Luminescence proximity measurements were carried out in the Synergy H4 reader (BioTek) employing the fluorescence setting of the reader (ex: 680/30 nm; em: 620/40 nm). Inhibition of IL-production/release in/from Jurkat T cells was quantified as follows: Zero percent inhibition (MAX) was defined as the [IL-2] determined in supernatants derived from cells to which PHA & DMSO-only had been added instead of compound. Hundred percent inhibition (MIN) was defined as the [IL-2] determined in supernatants derived from cells that had been pre-treated with 1 μM CyclosporineA (Sigma) before the addition of 15 μg/ml PHA. For routine IC50 determinations of compounds, 8 concentrations of a serial dilution (1:3.16) were tested, starting off from 10 μM.

[3] = thapsigargin store depletion, read-out: % inhib. [@ 10 μM] FLIPR
[4] = numeric values of Table 2, read-out: inhib. [@ 10 μM] FLIPR

T1 sequence (Q96D31 whole entry): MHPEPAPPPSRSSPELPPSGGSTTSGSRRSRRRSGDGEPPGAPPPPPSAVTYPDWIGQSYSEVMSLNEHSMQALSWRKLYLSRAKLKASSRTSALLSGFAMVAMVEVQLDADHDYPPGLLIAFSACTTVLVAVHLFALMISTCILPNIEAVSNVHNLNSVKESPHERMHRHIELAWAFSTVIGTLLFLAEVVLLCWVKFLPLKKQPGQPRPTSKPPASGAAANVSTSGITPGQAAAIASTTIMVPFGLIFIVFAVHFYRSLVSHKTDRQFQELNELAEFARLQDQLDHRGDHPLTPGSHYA

| Compound | inhibition at 10 µM [1, 3] [%] | IC50 [2] [µM] | inhibition at 10 µM [1, 4] [%] |
| --- | --- | --- | --- |
| CCOc1cc(OCC)c(-c2cc(C(=O)Nc3c(F)cncc3F)nn2C)cn1 [Example 15, 5-(4,6-Diethoxy-pyridin-3-yl)-N-(3,5-difluoro-pyridin-4-yl)-1-methyl-1H-pyrazole-3-carboxylic acid amide] | > 70 | < 0.5 |  |
| COc1cc(OC)c(-c2c(Cl)c(C(=O)Nc3c(F)cccc3F)nn2C)cn1 [Example 57, 4-Chloro-N-(2,6-difluoro-phenyl)-5-(4,6-dimethoxy-pyridin-3-yl)-1-methyl-1H-pyrazole-3-carboxylic acid amide] | > 70 | 1 to 5 |  |
| CCc1cc(C)c(-c2cc(C(=O)Nc3c(F)cncc3F)nn2C)cn1 [Example 7, N-(3,5-Difluoro-pyridin-4-yl)-5-(6-ethyl-4-methyl-pyridin-3-yl)-1-methyl-1H-pyrazole-3-carboxylic acid amide] | 50 to 70 | 1 to 5 | 61 |
| COc1cc(OC2COC2)ncc1-c1cc(C(=O)Nc2c(F)cccc2F)nn1C [Example 62, N-(2,6-Difluoro-phenyl)-5-[4-methoxy-6-(oxetan-3-yloxy)-pyridin-3-yl]-1-methyl-1H-pyrazole-3-carboxylic acid amide] | 50 to 70 | 1 to 5 |  |
| Cc1c(-c2cc(C(=O)Nc3c(F)cccc3F)nn2C)cnc(C2CC2)c1F [Example 33, 5-(6-Cyclopropyl-5-fluoro-4-methyl-pyridin-3-yl)-N-(2,6-difluoro-phenyl)-1-methyl-1H-pyrazole-3-carboxylic acid amide] | > 70 | 1 to 5 |  |
| COc1cc(OCC(F)(F)F)ncc1-c1cc(C(=O)Nc2c(F)cccc2F)nn1C [Example 46, N-(2,6-Difluoro-phenyl)-5-[4-methoxy-6-(2,2,2-trifluoro-ethoxy)-pyridin-3-yl]-1-methyl-1H-pyrazole-3-carboxylic acid amide] | > 70 | < 0.5 |  |
| Cc1c(-c2cc(C(=O)Nc3c(F)cncc3F)nn2C)cnc(C2CC2)c1F [Example 34, 5-(6-Cyclopropyl-5-fluoro-4-methyl-pyridin-3-yl)-N-(3,5-difluoro-pyridin-4-yl)-1-methyl-1H-pyrazole-3-carboxylic acid amide] | > 70 | 1 to 5 |  |
| Cc1cc(C2CC2)ncc1-c1cc(C(=O)Nc2c(F)cccc2F)nn1C [Example 8, 5-(6-Cyclopropyl-4-methyl-pyridin-3-yl)-N-(2,6-difluoro-phenyl)-1-methyl-1H-pyrazole-3-carboxylic acid amide] | > 70 | 1 to 5 | 81 |
| Cc1cc(OCC2CCC2)ncc1-c1cc(C(=O)Nc2c(F)cncc2F)nn1C [Example 20, 5-[6-(Cyclobutyl-methoxy)-4-methyl-pyridin-3-yl]-N-(3,5-difluoro-pyridin-4-yl)-1-methyl-1H-pyrazole-3-carboxylic acid amide] | > 70 | < 0.5 | 121 |
| Cc1cc(OC2COC2)ncc1-c1cc(C(=O)Nc2c(F)cccc2F)nn1C [Example 23, N-(2,6-Difluoro-phenyl)-1-methyl-5-[4-methyl-6-(oxetan-3-yloxy)-pyridin-3-yl]-1H-pyrazole-3-carboxylic acid amide] | > 70 | 1 to 5 | 94 |
| Cc1cc(OC(F)(F)F)ncc1-c1cc(C(=O)Nc2c(F)cncc2F)nn1C [Example 11, N-(3,5-Difluoro-pyridin-4-yl)-1-methyl-5-[4-methyl-6-(trifluoromethyloxy)-pyridin-3-yl]-1H-pyrazole-3-carboxylic acid amide] | > 70 | < 0.5 | 94 |
| COc1cc(OC)c(-c2c(C)c(C(=O)Nc3c(F)cncc3F)nn2C)cn1 [Example 65, N-(3,5-Difluoro-pyridin-4-yl)-5-(4,6-dimethoxy-pyridin-3-yl)-1,4-dimethyl-1H-pyrazole-3-carboxylic acid amide] | > 70 | 1 to 5 |  |
| COCCOc1cc(C)c(-c2cc(C(=O)Nc3c(F)cccc3F)nn2C)cn1 [Example 28, N-(2,6-Difluoro-phenyl)-5-[6-(2-methoxy-ethoxy)-4-methyl-pyridin-3-yl]-1-methyl-1H-pyrazole-3-carboxylic acid amide] | > 70 | 1 to 5 | 87 |
| Cn1nc(C(=O)Nc2c(F)cccc2F)cc1-c1cnc(C2CC2)cc1C(F)(F)F [Example 48, 5-[6-Cyclopropyl-4-(trifluoromethyl)-pyridin-3-yl]-N-(2,6-difluoro-phenyl)-1-methyl-1H-pyrazole-3-carboxylic acid amide] | > 70 | 0.5 to 1 |  |
| COc1cc(OC(F)F)ncc1-c1cc(C(=O)Nc2c(F)cccc2F)nn1C [Example 43, 5-[6-(Difluoro-methoxy)-4-methoxy-pyridin-3-yl]-N-(2,6-difluoro-phenyl)-1-methyl-1H-pyrazole-3-carboxylic acid amide] | > 70 | < 0.5 |  |
| CCOc1ncc(-c2cc(C(=O)Nc3c(F)cccc3F)nn2C)c(C)c1F [Example 35, N-(2,6-Difluoro-phenyl)-5-(6-ethoxy-5-fluoro-4-methyl-pyridin-3-yl)-1-methyl-1H-pyrazole-3-carboxylic acid amide] | < 50 | 1 to 5 |  |
| CCc1cc(C)c(-c2cc(C(=O)Nc3c(F)cccc3F)nn2C)cn1 [Example 6, N-(2,6-Difluoro-phenyl)-5-(6-ethyl-4-methyl-pyridin-3-yl)-1-methyl-1H-pyrazole-3-carboxylic acid amide] | > 70 | 1 to 5 | 67 |
| COc1cc(OC)c(-c2cc(C(=O)Nc3c(F)cccc3F)n[nH]2)cn1 [Example 69, N-(2,6-Difluoro-phenyl)-5-(4,6-dimethoxy-pyridin-3-yl)-1H-pyrazole-3-carboxylic acid amide hydrochloride] | > 70 | 1 to 5 |  |
| COc1cc(OC(F)F)ncc1-c1cc(C(=O)Nc2c(F)cncc2F)nn1C [Example 44, 5-[6-(Difluoro-methoxy)-4-methoxy-pyridin-3-yl]-N-(3,5-difluoro-pyridin-4-yl)-1-methyl-1H-pyrazole-3-carboxylic acid amide] | > 70 | < 0.5 |  |
| COc1cc(C2CC2)ncc1-c1cc(C(=O)Nc2c(F)cccc2F)nn1C [Example 54, 5-(6-Cyclopropyl-4-methoxy-pyridin-3-yl)-N-(2,6-difluoro-phenyl)-1-methyl-1H-pyrazole-3-carboxylic acid amide] | > 70 | < 0.5 |  |
